Where two headings read alike, the source gives them in different places.
Assay: Retention of THC in the mouth after smoking marijuana: THC in saliva and tongue mucus by quantitative GC/MS
Assay type: in vivo, human
Settings: for concentration at 5 min / concentration at 2 h / concentration at 6 h / concentration at 24 h: human, inhaled; for concentration at 5 min: 5 minutes post smoking 0.2 g of marijuana; for concentration at 2 h: 2 hours post smoking 0.2 g of marijuana; for concentration at 6 h: 6 hours post smoking 0.2 g of marijuana; for concentration at 24 h: 24 hours post smoking 0.2 g of marijuana
Text: 0.2 grams (g) of marijuana was smoked by a test subject. Mucosal surface samples and saliva were collected at different time intervals by scraping the top side of the tongue a polypropylene card having a width×length×thickness of about 2 inches×about 3 inches×about 0.04 inches, using the about 2 inch edge of the card as an abrasive. The mucus specimens were dripped into a glass vial for further analysis. Saliva specimens were collected at the same times by directly expectorating saliva into glass vials.
The specimens were analyzed by a quantitative GC/MS method for the detection of THC.

[1] = saliva (expectorated), read-out: THC Concentration, Saliva
[2] = tongue mucus (mucosal scrapings), mucosal scrapings from the top of the tongue, read-out: THC Concentration, Mucus

CCCCCc1cc(O)c2c(c1)OC(C)(C)[C@@H]1CCC(C)=C[C@@H]21 [THC, Tetrahydrocannabinol]
concentration at 5 min [1]: 115 ng/mL
concentration at 2 h [1]: 16 ng/mL
concentration at 6 h [1]: 11 ng/mL
concentration at 24 h [1]: 2.1 ng/mL
concentration at 5 min [2]: 587 ng/mL
concentration at 2 h [2]: 412 ng/mL
concentration at 6 h [2]: 123 ng/mL
concentration at 24 h [2]: 44 ng/mL
Retention of THC in mucus specimen compared with saliva (mucus vs saliva, 5 minutes to 24 hours after smoking 0.2 g of marijuana): significantly higher concentration and for longer time than in saliva

— patent publication US20060147348A1, “Sampling device and methods” (priority 2004, published 2006)
